From US20250270200A1, “CTPS1 INHIBITORS AND USES THEREOF” (Nimbus Clotho, Inc., priority 2022, published 2025)
pIC50: −log10 of the molar value. Counter-ions that a name gives are not always drawn.

Molecular target: T1, human CTPS1 (Homo sapiens, UniProt P17812)
T1 sequence (P17812 1-591): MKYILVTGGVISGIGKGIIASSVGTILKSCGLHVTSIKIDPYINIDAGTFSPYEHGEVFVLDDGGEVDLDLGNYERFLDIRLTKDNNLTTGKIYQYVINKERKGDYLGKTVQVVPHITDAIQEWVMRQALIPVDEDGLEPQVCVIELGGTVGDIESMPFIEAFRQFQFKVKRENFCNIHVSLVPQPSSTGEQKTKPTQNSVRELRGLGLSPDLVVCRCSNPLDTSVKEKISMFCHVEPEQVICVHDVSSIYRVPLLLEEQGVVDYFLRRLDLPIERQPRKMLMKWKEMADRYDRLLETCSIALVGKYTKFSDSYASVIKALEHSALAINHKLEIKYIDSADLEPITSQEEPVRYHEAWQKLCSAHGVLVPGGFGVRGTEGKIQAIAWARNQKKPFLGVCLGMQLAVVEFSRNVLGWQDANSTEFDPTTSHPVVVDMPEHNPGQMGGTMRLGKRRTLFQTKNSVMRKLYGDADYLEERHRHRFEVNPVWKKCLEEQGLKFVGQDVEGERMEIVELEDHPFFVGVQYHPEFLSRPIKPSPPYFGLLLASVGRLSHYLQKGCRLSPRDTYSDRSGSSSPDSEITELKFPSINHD
Experiment: ADP-Glo assay, human CTPS1 enzyme inhibition
Assay type: biochemical
Conditions: wild-type human CTPS1 25 nM; ATP 120 μM, UTP 160 μM, GTP 60 μM, L-glutamine 100 μM; 25 degrees C.; read-out: ADP-Glo_WT_hCTPS1—25 nM_IC50 (IC50)
Procedure, shortened: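 Full-length tagged human CTPS1 (25 nM) pre-incubated 10 min at 25° C with compound, then 10 min with ATP (120 μM) and UTP (160 μM); reaction started with L-glutamine (100 μM) and GTP (60 μM), 1% DMSO, in HEPES pH 7.4, 10 mM Mg2+, 5 mM KCl, 2 mM DTT. Run within linear phase at 25° C; ADP measured by ADP-Glo luminescence.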

| pIC50 | Structure (SMILES) |
| --- | --- |
| 7.60 to 8.30 | CCOc1cncc(-c2cnc(C(=O)N[C@@H](c3cccc(NS(=O)(=O)C(F)F)c3)[C@H](C)CN3CCCCC3)s2)n1 (single isomer, unassigned) [II-12] |
| 7.60 to 8.30 | O=C(N[C@@H](c1nccc(NS(=O)(=O)C2CC2)c1F)[C@H]1CCOC1)c1ncc(-c2cnn3ccc(Cl)cc23)s1 (single isomer, unassigned) [II-5] |

Same assay, conditions: wild-type human CTPS1, 25 nM enzyme; ADP-Glo; read-out: ADP-Glo_WT_hCTPS1—25 nM_IC50 (IC50)

| pIC50 | Structure (SMILES) |
| --- | --- |
| 7.30 to 7.60 | CCOc1cncc(-c2cnc(C(=O)N[C@@H](CN(C)C)c3cccc(NS(=O)(=O)C(F)F)c3)s2)n1 [I-212, (R)-N-(1-(3-((difluoromethyl)sulfonamido)phenyl)-2-(dimethylamino)ethyl)-5-(6-ethoxypyrazin-2-yl)thiazole-2-carboxamide] |
| 7.60 to 8.30 | CCOc1cncc(-c2cnc(C(=O)N[C@@H](CN3CCCC3)c3cccc(NS(=O)(=O)C(F)F)c3)s2)n1 (single isomer, unassigned) [I-38] |
| ≥ 8.30 | CCOc1cncc(-c2cnc(C(=O)N[C@H](c3cccc(NS(=O)(=O)C(F)F)c3)[C@H](C)CO)s2)n1 [I-242, N-((1S,2S)-1-(3-((difluoromethyl)sulfonamido)phenyl)-3-hydroxy-2-methylpropyl)-5-(6-ethoxypyrazin-2-yl)thiazole-2-carboxamide] |
| 7.60 to 8.30 | CCOc1cncc(-c2cnc(C(=O)N[C@H](CN3C[C@@H]4CC[C@H]3CO4)c3cc(NS(=O)(=O)C4CC4)ccn3)s2)n1 [I-136, N-((R)-2-((1S,4S)-2-oxa-5-azabicyclo[2.2.2]octan-5-yl)-1-(4-(cyclopropanesulfonamido)pyridin-2-yl)ethyl)-5-(6-ethoxypyrazin-2-yl)thiazole-2-carboxamide] |
| 7.60 to 8.30 | CCOc1cncc(-c2cnc(C(=O)N[C@H](COC)c3cccc(NS(=O)(=O)C(F)F)c3)s2)n1 [I-292, (S)-N-(1-(3-((difluoromethyl)sulfonamido)phenyl)-2-methoxyethyl)-5-(6-ethoxypyrazin-2-yl)thiazole-2-carboxamide] |
| 7.60 to 8.30 | CCOc1cncc(-c2cnc(C(=O)N[C@H](CN3CC[C@](C)(O)C3)c3cccc(NS(=O)(=O)C(F)F)c3)s2)n1 [I-208, N-((S)-1-(3-((difluoromethyl)sulfonamido)phenyl)-2-((S)-3-hydroxy-3-methylpyrrolidin-1-yl)ethyl)-5-(6-ethoxypyrazin-2-yl)thiazole-2-carboxamide, formic acid salt] |
| ≥ 8.30 | CCOc1cncc(-c2cnc(C(=O)N[C@@H](c3cccc(NS(=O)(=O)C(F)F)c3)[C@@H]3CCOC3)s2)n1 [I-189, N-((R)-(3-((difluoromethyl)sulfonamido)phenyl)((S)-tetrahydrofuran-3-yl)methyl)-5-(6-ethoxypyrazin-2-yl)thiazole-2-carboxamide] |
| 7.00 to 7.30 | CCOc1cncc(-c2cnc(C(=O)N[C@H](CN3C[C@H]4CC[C@@H]3C4)c3cccc(NS(=O)(=O)C(F)F)c3)s2)n1 [I-211, N-((S)-2-((1R,4S)-2-azabicyclo[2.2.1]heptan-2-yl)-1-(3-((difluoromethyl)sulfonamido)phenyl)ethyl)-5-(6-ethoxypyrazin-2-yl)thiazole-2-carboxamide] |
| 7.60 to 8.30 | CCOc1cncc(-c2cnc(C(=O)N[C@]3(c4cccc(NS(=O)(=O)C(F)F)c4)C[C@H](O)C3)s2)n1 [I-202, N-((1s,3s)-1-(3-((difluoromethyl)sulfonamido)phenyl)-3-hydroxycyclobutyl)-5-(6-ethoxypyrazin-2-yl)thiazole-2-carboxamide] |
| ≥ 8.30 | CCOc1cncc(-c2cnc(C(=O)N[C@H](CF)c3cc(NS(=O)(=O)C4CC4)ccn3)s2)n1 [I-161, (S)-N-(1-(4-(cyclopropanesulfonamido)pyridin-2-yl)-2-fluoroethyl)-5-(6-ethoxypyrazin-2-yl)thiazole-2-carboxamide] |
| 7.60 to 8.30 | CCOc1cncc(-c2cnc(C(=O)N[C@H](c3cccc(NS(=O)(=O)C(F)F)c3)[C@H]3CCOC3)s2)n1 [I-187, N-((S)-(3-((difluoromethyl)sulfonamido)phenyl)((R)-tetrahydrofuran-3-yl)methyl)-5-(6-ethoxypyrazin-2-yl)thiazole-2-carboxamide] |

More lines, now with the values behind:

| Structure (SMILES) | pIC50 |
| --- | --- |
| CCOc1cncc(-c2cnc(C(=O)N[C@@H](CN3CCCOCC3)c3cc(NS(=O)(=O)C4CC4)ccn3)s2)n1 [I-134, (S)-N-(1-(4-(cyclopropanesulfonamido)pyridin-2-yl)-2-(1,4-oxazepan-4-yl)ethyl)-5-(6-ethoxypyrazin-2-yl)thiazole-2-carboxamide] | 7.60 to 8.30 |
| CCOc1cncc(-c2cnc(C(=O)N[C@@H](CN3CCN(C4CC4)CC3)c3cc(NS(=O)(=O)C4CC4)ncn3)s2)n1 [I-248, (S)-N-(1-(6-(cyclopropanesulfonamido)pyrimidin-4-yl)-2-(4-cyclopropylpiperazin-1-yl)ethyl)-5-(6-ethoxypyrazin-2-yl)thiazole-2-carboxamide] | 7.30 to 7.60 |
| CCOc1cncc(-c2cnc(C(=O)N[C@H](CO[C@H]3CCOC3)c3cc(NS(=O)(=O)C4CC4)ccn3)s2)n1 [I-241, N-((S)-1-(4-(cyclopropanesulfonamido)pyridin-2-yl)-2-(((S)-tetrahydrofuran-3-yl)oxy)ethyl)-5-(6-ethoxypyrazin-2-yl)thiazole-2-carboxamide] | 7.60 to 8.30 |
| CCOc1cncc(-c2cnc(C(=O)N[C@@H](CN3CCOCC3)c3cc(NS(=O)(=O)C4CC4)ncn3)s2)n1 [I-246, (S)-N-(1-(6-(cyclopropanesulfonamido)pyrimidin-4-yl)-2-morpholinoethyl)-5-(6-ethoxypyrazin-2-yl)thiazole-2-carboxamide] | 7.60 to 8.30 |
| CCOc1cncc(-c2cnc(C(=O)N[C@@H](CO[C@H]3CCOC3)c3cc(NS(=O)(=O)C4CC4)ccn3)s2)n1 [I-238, N-((R)-1-(4-(cyclopropanesulfonamido)pyridin-2-yl)-2-(((S)-tetrahydrofuran-3-yl)oxy)ethyl)-5-(6-ethoxypyrazin-2-yl)thiazole-2-carboxamide] | 7.30 to 7.60 |
| O=C(N[C@H](c1cc(NS(=O)(=O)C2CC2)ccn1)[C@@H]1CCOC1)c1ncc(-c2cnn3ccc(Cl)cc23)s1 (single isomer, unassigned) [I-23] | 7.60 to 8.30 |
| CCOc1cncc(-c2cnc(C(=O)N[C@@H](c3cc(NS(=O)(=O)C4CC4)ccn3)C(C)(C)OC)s2)n1 [I-91, (S)-N-(1-(4-(cyclopropanesulfonamido)pyridin-2-yl)-2-methoxy-2-methylpropyl)-5-(6-ethoxypyrazin-2-yl)thiazole-2-carboxamide] | 7.60 to 8.30 |
| CCOc1cncc(-c2cnc(C(=O)N[C@@H](CN3[C@@H]4CC[C@H]3COC4)c3cc(NS(=O)(=O)C4CC4)ccn3)s2)n1 (single isomer, unassigned) [I-36] | 7.00 to 7.30 |
| CCOc1cncc(-c2cnc(C(=O)N[C@H](c3cc(NS(=O)(=O)C4CC4)ccn3)[C@@H](C)CO)s2)n1 [I-228, N-((1S,2R)-1-(4-(cyclopropanesulfonamido)pyridin-2-yl)-3-hydroxy-2-methylpropyl)-5-(6-ethoxypyrazin-2-yl)thiazole-2-carboxamide] | 7.60 to 8.30 |
| CCOc1cncc(-c2cnc(C(=O)N[C@H](c3cc(NS(=O)(=O)C4CC4)ccn3)[C@@H](C)COC)s2)n1 [I-236, N-((1S,2R)-1-(4-(cyclopropanesulfonamido)pyridin-2-yl)-3-methoxy-2-methylpropyl)-5-(6-ethoxypyrazin-2-yl)thiazole-2-carboxamide] | ≥ 8.30 |
| CCOc1cncc(-c2cnc(C(=O)N[C@H](c3cc(NS(=O)(=O)C4CC4)ccn3)[C@H]3CCN(CCF)C3)s2)n1 [I-107, N-((S)-(4-(cyclopropanesulfonamido)pyridin-2-yl)((S)-1-(2-fluoroethyl)pyrrolidin-3-yl)methyl)-5-(6-ethoxypyrazin-2-yl)thiazole-2-carboxamide] | 7.00 to 7.30 |
| CCOc1cncc(-c2cnc(C(=O)N[C@H](c3cc(NS(=O)(=O)C4CC4)ccn3)C(C)(C)CN(C)C)s2)n1 (single isomer, unassigned) [I-42] | 7.00 to 7.30 |
| O=C(N[C@H](CCN1CCCCC1)c1cc(NS(=O)(=O)C2CC2)ccn1)c1ncc(-c2cnn3ccc(Cl)cc23)s1 (single isomer, unassigned) [I-10] | 7.60 to 8.30 |
| CCOc1cncc(-c2cnc(C(=O)N[C@H](c3cc(NS(=O)(=O)C4CC4)ccn3)[C@@H](C)N3C[C@H]4C[C@@H]3CO4)s2)n1 [I-167, N-((1S,2R)-2-((1R,4R)-2-oxa-5-azabicyclo[2.2.1]heptan-5-yl)-1-(4-(cyclopropanesulfonamido)pyridin-2-yl)propyl)-5-(6-ethoxypyrazin-2-yl)thiazole-2-carboxamide] | 7.30 to 7.60 |
| CCOc1cncc(-c2cnc(C(=O)N[C@H](CN3CCCC3)c3cc(NS(=O)(=O)C4CC4)ncn3)s2)n1 [I-251, (R)-N-(1-(6-(cyclopropanesulfonamido)pyrimidin-4-yl)-2-(pyrrolidin-1-yl)ethyl)-5-(6-ethoxypyrazin-2-yl)thiazole-2-carboxamide] | 7.30 to 7.60 |
